Data taken from publication PMC9095466 (Nature, 2022).
Several values for one entry are separate records, joined by “and”; a condition that tells them apart may be missing. Equal values may be shown once. Read-outs that look alike come from different tables or passages of the source.

How the values were obtained:
human cathepsin L = target: T1, human cathepsin L (Homo sapiens, UniProt P07711); experiment: Protease selectivity, Ki on protease; type: biochemical; conditions: single experiments N1-N4; Figure 1D; read-out: Individual Ki, Cathepsin L
T1 construct: purchased Bio-Techne
T1 sequence (P07711 114-333): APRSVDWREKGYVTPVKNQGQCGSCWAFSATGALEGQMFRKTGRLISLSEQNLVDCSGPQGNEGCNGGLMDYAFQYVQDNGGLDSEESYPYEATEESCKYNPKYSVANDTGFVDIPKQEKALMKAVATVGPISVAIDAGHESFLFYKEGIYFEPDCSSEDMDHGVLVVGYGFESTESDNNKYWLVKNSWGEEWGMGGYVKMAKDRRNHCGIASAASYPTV

Recombinant human DESC1 = target: T2, Recombinant human DESC1 (Homo sapiens, UniProt Q9UL52); experiment: Protease selectivity, Ki on recombinant protease; type: biochemical; conditions: single experiments N1-N3; Figure 1D; read-out: Individual Ki, Desc1
T2 construct: made in house
T2 sequence (Q9UL52 1-423): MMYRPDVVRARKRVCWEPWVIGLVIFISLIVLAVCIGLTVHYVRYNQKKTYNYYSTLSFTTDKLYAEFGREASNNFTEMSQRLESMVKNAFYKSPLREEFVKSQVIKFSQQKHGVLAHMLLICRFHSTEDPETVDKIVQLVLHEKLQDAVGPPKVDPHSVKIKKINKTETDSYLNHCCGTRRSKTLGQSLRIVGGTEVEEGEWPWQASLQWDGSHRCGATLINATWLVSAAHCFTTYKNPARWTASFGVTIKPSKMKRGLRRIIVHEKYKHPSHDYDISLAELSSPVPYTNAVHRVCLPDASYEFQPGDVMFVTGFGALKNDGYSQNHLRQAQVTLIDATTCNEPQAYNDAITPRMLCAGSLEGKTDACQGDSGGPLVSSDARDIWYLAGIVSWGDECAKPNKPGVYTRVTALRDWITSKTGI

Calu-3 cells = experiment: Cytotoxicity CC50 in Calu-3 lung epithelial cells; type: cell-based, human; conditions: single replicates
[1] = Cytotoxicity CC50 in Calu-3 lung epithelial cells; type: cell-based, human; conditions: human, Calu-3 cells; for viability at 24 h, 3000 µM: Log [inhibitor] -2.52; for viability at 24 h, 300 µM: Log [inhibitor] -3.52; for viability at 24 h, 100 µM: Log [inhibitor] -4.00; for viability at 24 h, 30 µM: Log [inhibitor] -4.52; for viability at 24 h, 10 µM: Log [inhibitor] -5.00; for viability at 24 h, 3 µM: Log [inhibitor] -5.52; for viability at 24 h, 0.3 µM: Log [inhibitor] -6.52; for viability at 24 h, 0.03 µM: Log [inhibitor] -7.52; for viability at 24 h, 0.003 µM: Log [inhibitor] -8.52
human thrombin = target: T3, human thrombin (Homo sapiens, UniProt P00734); experiment: Protease selectivity, Ki on protease; type: biochemical; conditions: single experiments N1-N3; Figure 1D; read-out: Individual Ki, Thrombin
T3 construct: purchased MilliporeSigma

Recombinant human hepsin = target: T4, Recombinant human hepsin (Homo sapiens, UniProt P05981); experiment: Protease selectivity, Ki on recombinant protease; type: biochemical; conditions: single experiments N1-N3; Figure 1D; read-out: Individual Ki, Hepsin
T4 construct: made in house
T4 sequence (P05981 whole entry): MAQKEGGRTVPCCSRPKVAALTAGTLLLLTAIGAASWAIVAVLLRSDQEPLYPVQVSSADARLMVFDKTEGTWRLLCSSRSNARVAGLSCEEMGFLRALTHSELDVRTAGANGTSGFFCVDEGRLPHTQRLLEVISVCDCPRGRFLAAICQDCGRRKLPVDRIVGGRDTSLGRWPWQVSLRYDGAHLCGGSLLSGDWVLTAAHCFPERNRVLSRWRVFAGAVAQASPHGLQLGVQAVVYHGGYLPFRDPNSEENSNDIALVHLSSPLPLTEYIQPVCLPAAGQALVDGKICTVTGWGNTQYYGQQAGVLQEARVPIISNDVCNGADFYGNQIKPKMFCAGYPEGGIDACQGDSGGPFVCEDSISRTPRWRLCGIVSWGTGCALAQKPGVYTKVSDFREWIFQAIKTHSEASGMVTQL

Recombinant human furin = target: T5, Recombinant human furin (Homo sapiens, UniProt P09958); experiment: Protease selectivity, Ki on recombinant protease; type: biochemical; conditions: single experiments N1-N3; Figure 1D; read-out: Individual Ki, Furin
T5 construct: purchased Bio-Techne
T5 sequence (P09958 108-794): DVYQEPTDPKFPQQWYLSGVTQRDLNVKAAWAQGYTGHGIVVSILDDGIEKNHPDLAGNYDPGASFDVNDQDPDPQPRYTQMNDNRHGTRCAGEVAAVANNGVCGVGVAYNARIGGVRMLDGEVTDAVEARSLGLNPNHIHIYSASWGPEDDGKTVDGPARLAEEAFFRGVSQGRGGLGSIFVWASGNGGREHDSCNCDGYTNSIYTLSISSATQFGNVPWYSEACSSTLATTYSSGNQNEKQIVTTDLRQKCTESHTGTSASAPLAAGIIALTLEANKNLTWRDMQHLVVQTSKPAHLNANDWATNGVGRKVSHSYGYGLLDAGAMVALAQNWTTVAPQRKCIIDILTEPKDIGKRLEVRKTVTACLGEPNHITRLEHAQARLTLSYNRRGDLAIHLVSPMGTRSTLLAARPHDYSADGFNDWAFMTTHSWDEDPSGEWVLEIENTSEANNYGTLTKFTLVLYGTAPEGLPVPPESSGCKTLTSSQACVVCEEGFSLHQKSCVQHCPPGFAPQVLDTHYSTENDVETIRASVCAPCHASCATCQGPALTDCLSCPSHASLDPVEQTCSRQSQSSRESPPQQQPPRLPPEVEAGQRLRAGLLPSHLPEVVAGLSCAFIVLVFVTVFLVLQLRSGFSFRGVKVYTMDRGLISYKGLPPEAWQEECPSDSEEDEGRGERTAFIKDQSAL

[2] = target: T6, Recombinant human matriptase (Homo sapiens, UniProt Q9Y5Y6); experiment: Protease selectivity, Ki on recombinant protease; type: biochemical; conditions: single experiments N1-N3; Figure 1D; read-out: Individual Ki, Matriptase
T6 construct: made in house
T6 sequence (Q9Y5Y6 1-855): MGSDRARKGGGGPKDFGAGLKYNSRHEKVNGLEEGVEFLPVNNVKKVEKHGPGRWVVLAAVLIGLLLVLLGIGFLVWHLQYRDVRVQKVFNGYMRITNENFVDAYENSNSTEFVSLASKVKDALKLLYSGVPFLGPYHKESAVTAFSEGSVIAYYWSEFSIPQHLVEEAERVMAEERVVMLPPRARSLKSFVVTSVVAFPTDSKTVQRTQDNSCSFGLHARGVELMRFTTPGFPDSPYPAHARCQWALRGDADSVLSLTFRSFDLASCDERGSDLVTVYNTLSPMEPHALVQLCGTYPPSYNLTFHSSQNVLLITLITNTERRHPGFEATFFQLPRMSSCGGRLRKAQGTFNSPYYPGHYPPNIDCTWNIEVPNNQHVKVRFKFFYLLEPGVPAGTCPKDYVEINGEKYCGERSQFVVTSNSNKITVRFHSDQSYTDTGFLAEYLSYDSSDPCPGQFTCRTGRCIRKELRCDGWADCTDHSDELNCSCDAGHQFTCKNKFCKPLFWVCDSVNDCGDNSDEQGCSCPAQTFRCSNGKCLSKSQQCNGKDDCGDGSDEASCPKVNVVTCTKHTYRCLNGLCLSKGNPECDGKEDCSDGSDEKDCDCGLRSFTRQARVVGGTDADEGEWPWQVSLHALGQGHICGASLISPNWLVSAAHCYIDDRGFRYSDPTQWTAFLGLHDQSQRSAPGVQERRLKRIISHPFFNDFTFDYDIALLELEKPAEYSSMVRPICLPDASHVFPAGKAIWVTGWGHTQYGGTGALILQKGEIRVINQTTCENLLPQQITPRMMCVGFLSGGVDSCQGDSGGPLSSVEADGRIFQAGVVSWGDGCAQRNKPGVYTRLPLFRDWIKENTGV

[3] = system: SARS-CoV-2 lineage B strain (VIDO); experiment: microbe, parasite or virus in culture; type: cell-based
human TMPRSS2 = human TMPRSS2 (Homo sapiens, UniProt O15393); experiment: cell-based; conditions: for TMPRSS2 activity (%): Figure 1B, single experiments N1-N3; for inhibition at 0.01 µM: Vero C1008, 10 nM compound, 24 h, vs untreated/vehicle TMPRSS2-expressing Vero E6 cells, read-out: inhibition of TMPRSS2 activity (reduction of substrate proteolysis)
Sequence of human TMPRSS2 (O15393 whole entry): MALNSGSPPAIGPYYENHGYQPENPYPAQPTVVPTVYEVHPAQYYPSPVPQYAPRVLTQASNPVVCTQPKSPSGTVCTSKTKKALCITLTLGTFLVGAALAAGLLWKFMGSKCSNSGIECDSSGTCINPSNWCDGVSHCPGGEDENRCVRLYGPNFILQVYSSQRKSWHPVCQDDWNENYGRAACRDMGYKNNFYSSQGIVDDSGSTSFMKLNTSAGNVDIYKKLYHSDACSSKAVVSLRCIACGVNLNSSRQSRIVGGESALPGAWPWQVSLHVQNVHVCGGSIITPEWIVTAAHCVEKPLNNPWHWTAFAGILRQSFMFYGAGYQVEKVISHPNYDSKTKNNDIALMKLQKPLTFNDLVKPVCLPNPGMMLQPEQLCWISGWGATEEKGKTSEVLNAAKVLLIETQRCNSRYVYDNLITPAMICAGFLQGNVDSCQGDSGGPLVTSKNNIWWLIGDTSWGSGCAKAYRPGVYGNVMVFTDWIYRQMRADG

[4] = read-out: % of Viability, Average (n=2)
[5] = single replicates, read-out: % of Viability

CC(=O)N[C@@H](CCC(N)=O)C(=O)N[C@@H](Cc1ccccc1)C(=O)N[C@@H](CCCNC(=N)N)C(=O)c1nc2ccccc2s1 [Compound N-00386]
Ki (human cathepsin L): 7.72 µM and 7.58 µM and 7.87 µM
Ki (Recombinant human DESC1): 0.0111 µM and 0.00728 µM and 0.00899 µM

CC(=O)N[C@@H](CCC(N)=O)C(=O)N[C@@H](Cc1ccccc1)C(=O)N[C@@H](CCCNC(=N)N)C(=O)c1nc2ccccc2s1 [Compound N-386]
% of Viability (Calu-3 cells; Log [inhibitor] -2.52): 48%
% of Viability (Calu-3 cells; Log [inhibitor] -4.00): 88%
% of Viability (Calu-3 cells; Log [inhibitor] -4.52): 90%
% of Viability (Calu-3 cells; Log [inhibitor] -5.00): 88%
% of Viability (Calu-3 cells; Log [inhibitor] -7.52): 106%
viability at 24 h, 3000 µM [1, 4]: 46%
viability at 24 h, 3000 µM [1, 5]: 44%
viability at 24 h, 300 µM [1, 4]: 82.5%
viability at 24 h, 300 µM [1, 5]: 79%
viability at 24 h, 100 µM [1, 4]: 87%
viability at 24 h, 100 µM [1, 5]: 86%
viability at 24 h, 30 µM [1, 4]: 87.5%
viability at 24 h, 30 µM [1, 5]: 85%
viability at 24 h, 10 µM [1, 4]: 87%
viability at 24 h, 10 µM [1, 5]: 86%
viability at 24 h, 3 µM [1, 4]: 95%
viability at 24 h, 3 µM [1, 5]: 95%
viability at 24 h, 0.3 µM [1, 4]: 100%
viability at 24 h, 0.3 µM [1, 5]: 98%
viability at 24 h, 0.03 µM [1, 4]: 104%
viability at 24 h, 0.03 µM [1, 5]: 101%
viability at 24 h, 0.003 µM [1, 4]: 102%
viability at 24 h, 0.003 µM [1, 5]: 102%
CC50 at 24 h ([1]; unit not given for CC50, read-out: CC50): 1880 µM

N=C(N)NCCCCC(=O)N[C@@H](CCC(=O)O)C(=O)N[C@@H](Cc1ccccc1)C(=O)N[C@@H](CCCNC(=N)N)C(=O)c1nc2ccccc2s1 [Compound N-00438]
Ki (human thrombin): > 10 µM
Ki (Recombinant human hepsin): 0.000477 µM and 0.000603 µM and 0.000489 µM
Ki (Recombinant human furin): > 10 µM
Ki [2]: 0.00121 µM and 0.00102 µM and 0.00109 µM
Ki (human cathepsin L): > 10 µM
Ki (Recombinant human DESC1): 0.0343 µM and 0.0276 µM and 0.0298 µM

CC(=O)NC(CCC(N)=O)C(=O)NC(CC1CCCCC1)C(=O)NC(CCCNC(=N)N)C(=O)c1nc2ccccc2s1 (stereo not shown) [Compound N-0676]
inhibition at 0.1 µM ([3]; Severe acute respiratory syndrome coronavirus 2, Calu-3, read-out: inhibition of SARS-CoV-2 infection): < 53%
TMPRSS2 activity (%) (human TMPRSS2): 95.6684% and 87.7074% and 100.707%
inhibition at 0.01 µM (human TMPRSS2): 8%

N=C(N)NCCCC(NC(=O)C(Cc1ccccc1)NC(=O)C(CCC(N)=O)NC(=N)N)C(=O)c1nc2ccccc2s1 (stereo not shown) [Compound N-1296]
Nucleocapsid ([3]; Figure 2a; two replicates; DMSO control about 91-94): 31.7311 and 81.7299
dsRNA ([3]; Figure 2a; two replicates; DMSO control about 93-95): 37.1641 and 78.8536
inhibition at 0.1 µM ([3]; Severe acute respiratory syndrome coronavirus 2, Calu-3; read-out: inhibition of SARS-CoV-2 infection): < 44%
TMPRSS2 activity (%) (human TMPRSS2): 93.2686% and 83.3862% and 77.4595%
inhibition at 0.01 µM (human TMPRSS2): 16%
